Common to all, as to assay type: physicochemical
Series [1] in a line: Terpene oxidation with ascorbic acid or EDTA at 40° C. From the text: However, nearly all terpenes can be oxidized and some can oxidize faster than others. When terpenes are put into a ready-to-drink beverage, the chemical degradation that can be caused by oxidation needs to be considered. When the oxidation happens, it not only diminishes the designed effect of the product, but it also creates unknown by-products that can be potentially harmful to consume. Oxidation rate of α-pinene and limonene was compared with the addition of ascorbic acid and EDTA.

A short description of series [2]: Water-soluble antioxidant standard protocol, THC potency decay at 40° C. Particulars: for THC potency loss at 10 weeks with combined antioxidants: Polysorbate Emulsion 1. The procedure:
The study was done with standard protocol: 20 mg THC nanoemulsion was diluted in 12 oz purified water into an amber glass bottle which was finished with a crown cap. The nanoemulsion was produced using polysorbate as an emulsifier with 50 nm droplet size (See Emulsion 1 from Table 3). The pH of the solution was adjusted to 4.0. The water-soluble antioxidants were added into the final solution at 0.005% (50 ppm).
All the testing above was based on the THC nanoemulsion made with polysorbate as an emulsifier (see Emulsion 1 from Table 3). Two other THC emulsions were produced with polyglycerol and Q-Naturale (see Emulsion 3 and 4 from […]).
The three oil soluble antioxidants were all targeted at 0.01% (100 ppm).

Series [3] is described as follows: Oil-phased versus water-phased antioxidants, THC potency loss at 40° C. Particulars: polysorbate emulsion, antioxidant 0.01%, glass bottle with crown cap. From the text: There are two major types of antioxidants depending on their solubility: oil-phased antioxidants and water-phased antioxidants. The oil-phased antioxidants usually exist within the emulsion droplet and water-phased antioxidants are usually added during beverage production. It was believed that both types of antioxidants should work since they follow similar mechanisms: both function as a sacrificial agent to be oxidized prior to oxidation of the API, or they function as chelating agents where they scavenge the metal ions that catalyze oxidation. […] An emulsion was produced using polysorbate, shown as Emulsion 1 in Table 3. The antioxidant concentration was targeted at 0.01%.

Series [4] can be described thus: THC potency loss in glass bottle with child-resistant cap at room temperature. The text has this: The concentration of the antioxidant was studied to ensure the antioxidant will last long enough to protect against THC degradation.
Series [5] in a line: Contact angle of liquids on aluminum can liner (hydrophobicity study). Particulars: Krüss contact angle machine; flattened liner side of aluminum can. Here is the method:
For hydrophobicity studies, a Krüss contact angle machine was used. An aluminum can was cut in half, and the flattened liner side was used as the testing surface. The contact angle of water, coconut oil, coconut oil+THC at different ratios, and coconut oil+CBD at different ratios on the liner was measured.

Setting [6] is: oil-soluble antioxidant at 100 ppm + 10 ppm EDTA.
[7] abbreviates: oil-soluble antioxidant at 100 ppm + 50 ppm Ascorbic Acid.
The mark [8] stands for this setting: 20 mg THC polysorbate nanoemulsion in 12 oz water, pH 4.0, amber glass, 40° C., antioxidant 0.005% (50 ppm).

The values below come from patent US12568982B2, “Systems for retaining potency in an infused beverage” (Vertosa Inc., priority 2020, dated 2026).

In the case of `C=CC(C)(O)CCC=C(C)C` (stereo not drawn) [linalool], the “2-weeks potency loss at 40° C.” value in series [1] (10 ppm EDTA) came out at 9%; in series [1] (50 ppm ascorbic acid) it was 6%; in series [1] (No antioxidant), 46%.

For `CCCOC(=O)c1cc(O)c(O)c(O)c1` [Propyl Gallate, propyl gallate], the “THC potency loss at 10 weeks with combined antioxidants” value (“THC potency loss at 10 weeks” below) in series [2] (setting [6]) is recorded as 6%; in series [2] (setting [7]), 7%.

With `O=C1O[C@H]([C@@H](O)CO)C(O)=C1O` [Ascorbic Acid, ascorbic acid], in series [3], the “THC loss at 10 weeks” value is reported as 17%. The “THC potency loss %” value was determined as 21% in series [4] (Ascorbic acid 20 ppm, 6 months at room temperature); 35% in series [4] (Ascorbic acid 20 ppm, 12 months at room temperature); 7% in series [4] (Ascorbic acid 50 ppm, 6 months at room temperature); 10% in series [4] (Ascorbic acid 50 ppm, 12 months at room temperature); 3% in series [4] (Ascorbic acid 200 ppm, 6 months at room temperature); 7% in series [4] (Ascorbic acid 200 ppm, 12 months at room temperature).

As for `CC1=CCC2CC1C2(C)C` (stereo not drawn) [α-pinene], the “2-weeks potency loss at 40° C.” value was 6% in series [1] (10 ppm EDTA), 4% in series [1] (50 ppm ascorbic acid) and 57% in series [1] (No antioxidant).

As for `CCCCCc1cc(O)c2c(c1)OC(C)(C)[C@@H]1CCC(C)=C[C@@H]21` [THC, Tetrahydrocannabinol], the “THC potency loss %” value in series [4] (No antioxidant, 6 months at room temperature, child resistant cap type 1) stood at 56%; in series [4] (No antioxidant, 12 months at room temperature, child resistant cap type 1), 78%.

Take `O` [Water]: in series [5], the “Contact Angle on Liner” value stood at 85°.

For `C=CC(=C)CCC=C(C)C` [myrcene], the “2-weeks potency loss at 40° C.” value in series [1] (10 ppm EDTA) turned out to be 6%; in series [1] (50 ppm ascorbic acid), 3%; in series [1] (No antioxidant) it was 38%.

As to `O=C(O)c1cc(O)c(O)c(O)c1` [Gallic acid], in series [2] (setting [8]), the “THC loss at 4 weeks” value worked out at 10% and the “THC loss at 10 weeks” value is on record as 27%.

Consider `O=C(O)CN(CCN(CC(=O)O)CC(=O)O)CC(=O)O` [EDTA, Ethylenediaminetetraacetic acid], for which the “THC potency loss %” value was found to be 16% in series [4] (EDTA 5 ppm, 6 months at room temperature); 39% in series [4] (EDTA 5 ppm, 12 months at room temperature); 8% in series [4] (EDTA 10 ppm, 6 months at room temperature); 12% in series [4] (EDTA 10 ppm, 12 months at room temperature); 6% in series [4] (EDTA 20 ppm, 6 months at room temperature); 9% in series [4] (EDTA 20 ppm, 12 months at room temperature).

Regarding tocopherol [Vitamin E (tocopherol)], in series [3], the “THC loss at 4 weeks” value came out at 25% and the “THC loss at 10 weeks” value is given as 46%. The “THC potency loss at 10 weeks” value in series [2] (setting [6]) was 7%. For the same molecule, the “THC potency loss at 10 weeks” value in series [2] (setting [7]) stood at 6%.

For the molecule `C=C(C)[C@H]1CC=C(C)CC1` [limonene], the “2-weeks potency loss at 40° C.” value in series [1] (10 ppm EDTA) was 8%; in series [1] (50 ppm ascorbic acid), 7%; in series [1] (No antioxidant) it was 68%.
